In patent US8143374B2, “Polypeptide derivatives of parathyroid hormone (PTH)” (The General Hospital Corporation, priority 2006, dated 2012):
Where “and” joins values, the source holds several entries; their conditions need not be identical. Equal entries are not always repeated. Where two headings read alike, the source gives them in different places. Where a SMILES comes first, the peptide text is derived from it. Where no end group is shown, it is not given here. [ ]: non-standard residue; d: D form. Apa = (S)-2-amino-4[(2-amino)pyrimidinyl]methylalanine; Phe(4-guanidino) = N=C(N)Nc1ccc(C[C@H](N)C(=O)O)cc1; Cha = N[C@@H](CC1CCCCC1)C(=O)O; Orn = NCCC[C@H](N)C(=O)O

Key:
[1] = Circular dichroism spectroscopy, helical residues per peptide chain; type: physicochemical; conditions: calculated from [θ]222
Outline: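 Helical residue count per peptide chain derived from 222 nm mean residue ellipticity via −[θ]222×30/28,000. Spectra taken at 20 °C as four-scan averages, with concentrations verified by absorbance at 280 nm (single tryptophan, 5700 M^−1).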

PTHR-delNt = biological target: T1, PTHR-delNt (Homo sapiens, UniProt Q03431, DEL24-181); assay: Competition binding in COS-7 cell membranes with 125I-[Aib1,3,M]PTH(1-15)NH2 tracer; conditions: for IC50: COS-7 membranes cotransfected with negative-dominant Gαs, read-out: PTHR-delNT (COS-7) IC50; for reduction (alteration) of binding affinity for PTHR-delNt relative to parent peptide: versus the respective parent peptide
T1 construct: expressed in transfected cells; host or cells: COS-7 cells, transient co-transfection; membranes prepared
T1 sequence (Q03431 with tags, fused parts or gaps DEL24-181): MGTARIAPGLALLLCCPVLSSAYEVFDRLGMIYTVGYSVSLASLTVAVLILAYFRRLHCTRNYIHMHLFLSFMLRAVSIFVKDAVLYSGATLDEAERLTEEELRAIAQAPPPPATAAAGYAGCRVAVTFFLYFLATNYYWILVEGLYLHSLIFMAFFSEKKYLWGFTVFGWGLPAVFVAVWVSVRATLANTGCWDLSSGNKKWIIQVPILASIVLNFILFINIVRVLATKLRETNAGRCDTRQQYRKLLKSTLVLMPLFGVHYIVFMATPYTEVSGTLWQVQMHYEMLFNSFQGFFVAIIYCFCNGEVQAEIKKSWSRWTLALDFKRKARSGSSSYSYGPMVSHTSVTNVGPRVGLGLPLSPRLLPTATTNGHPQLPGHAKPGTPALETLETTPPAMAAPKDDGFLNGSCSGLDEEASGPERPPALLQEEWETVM
Outline: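 IC50 from four-parameter logistic fitting of specific tracer binding, extrapolated to maximal [Aib1,3,M]PTH(1-15)NH2 inhibition when displacement was incomplete. Competitor peptides (3×10^−9 to 1×10^−5 M) and 125I-[Aib1,3,M]PTH(1-15)NH2 were incubated 90 min, 21 °C, with membranes (20 µg/well) of COS-7 cells expressing N-terminally truncated (Δ24–181) human PTHR with dominant-negative Gαs; 1×10^−6 M unlabeled tracer peptide defined non-specific binding.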

[2] = [Ala1,Arg19]hPTH(1-31)NH2 analogs

Compound | CD helical residues ([1]; hPTH(1-31)NH2 analogs) | IC50 (PTHR-delNt; hPTH(1-31)NH2 analogs) [µM] | CD helical residues [1, 2] | reduction (alteration) of binding affinity for PTHR-delNt relative to parent peptide (PTHR-delNt; COS-7 membranes) | other results
SVSEIQLMHNLGKHLNSMERVEWLAKKLQDV-NH2 [Arg^25→Ala] | 7 | 7.18 | – | – | –
AVSEIQLMHNLGKHLNSMRRVEWLRKELQDV-NH2 [Lys^27→Glu] | – | – | 5 | – | IC50 (PTHR-delNt; [2]): 1.27 µM
SVSEIQLMHNLGKHLNSMEKVEWLRKKLQDV-NH2 [Arg^20→Lys] | 8 | 7.11 | – | – | –
SVSEIQLMHNLGKHLNSMERVEALRKKLQDV-NH2 [Trp^23→Ala] | 7 | 7.36 | – | only two-fold | –
SVSEIQLMHNLGKHLNSMEAVEWLRKKLQDV-NH2 [Arg^20→Ala] | 10 | 19.3 | – | approximate five-fold reduction | –
CC[C@H](C)[C@H](NC(=O)[C@H](CCC(=O)O)NC(=O)[C@H](CO)NC(=O)[C@@H](NC(=O)[C@H](C)N)C(C)C)C(=O)N[C@@H](CCC(N)=O)C(=O)N[C@@H](CC(C)C)C(=O)N[C@@H](CCSC)C(=O)N[C@@H](Cc1c[nH]cn1)C(=O)N[C@@H](CC(N)=O)C(=O)N[C@@H](CC(C)C)C(=O)NCC(=O)N[C@@H](CCCCN)C(=O)N[C@@H](Cc1c[nH]cn1)C(=O)N[C@@H](CC(C)C)C(=O)N[C@@H](CC(N)=O)C(=O)N[C@@H](CO)C(=O)N[C@@H](CCSC)C(=O)N[C@@H](CCCNC(=N)N)C(=O)N[C@@H](CC1CCCCC1)C(=O)N[C@H](C(=O)N[C@@H](CCC(=O)O)C(=O)N[C@@H](Cc1c[nH]c2ccccc12)C(=O)N[C@@H](CC(C)C)C(=O)N[C@@H](CCCNC(=N)N)C(=O)N[C@@H](CCCCN)C(=O)N[C@@H](CCCCN)C(=O)N[C@@H](CC(C)C)C(=O)N[C@@H](CCC(N)=O)C(=O)N[C@@H](CC(=O)O)C(=O)N[C@H](C(N)=O)C(C)C)C(C)C [Arg^20→Cha, AlaValSerGluIleGlnLeuMetHisAsnLeuGlyLysHisLeuAsnSerMetArgChaValGluTrpLeuArgLysLysLeuGlnAspVal] (H-AVSEIQLMHNLGKHLNSMR[Cha]VEWLRKKLQDV-NH2; N-terminus assumed) | – | – | 16 | three-fold or less | IC50 (PTHR-delNt; [2]): 0.632 ± 0.079 µM
AVSEIQLMHNLGKHLNSMRRVEWERKKLQDV-NH2 [Leu^24→Glu] | – | – | 6 | less than three-fold | effect on binding to PTHR-delNt (in words) (PTHR-delNt; COS-7 membranes): only mildly impaired binding to PTHR-delNt; IC50 (PTHR-delNt; [2]): 1.04 µM
AVSEIQLMHNLGKHLNSMERVEWLRKKLQDV-NH2 [Arg^19→Glu] | – | – | 9 | 50 fold and 90 fold | –
SVSEIQLMHNLGKHLNSMERVEWLRKKLQDA-NH2 [Val^31→Ala] | 9 | 4.91 | – | – | –
CC[C@H](C)[C@H](NC(=O)[C@H](CCC(=O)O)NC(=O)[C@H](CO)NC(=O)[C@@H](NC(=O)[C@H](C)N)C(C)C)C(=O)N[C@@H](CCC(N)=O)C(=O)N[C@@H](CC(C)C)C(=O)N[C@@H](CCSC)C(=O)N[C@@H](Cc1c[nH]cn1)C(=O)N[C@@H](CC(N)=O)C(=O)N[C@@H](CC(C)C)C(=O)NCC(=O)N[C@@H](CCCCN)C(=O)N[C@@H](Cc1c[nH]cn1)C(=O)N[C@@H](CC(C)C)C(=O)N[C@@H](CC(N)=O)C(=O)N[C@@H](CO)C(=O)N[C@@H](CCSC)C(=O)N[C@@H](CCCNC(=N)N)C(=O)N[C@@H](CCCNC(=N)N)C(=O)N[C@H](C(=O)N[C@@H](CCC(=O)O)C(=O)N[C@@H](Cc1c[nH]c2ccccc12)C(=O)N[C@@H](CC(C)C)C(=O)N[C@@H](CCCNC(=N)N)C(=O)N[C@@H](CCCCN)C(=O)N[C@@H](CCCCN)C(=O)N[C@@H](CC(C)C)C(=O)N[C@@H](CCC(N)=O)C(=O)N[C@@H](CC1CCCCC1)C(=O)N[C@H](C(N)=O)C(C)C)C(C)C [Asp^30→Cha] (H-AVSEIQLMHNLGKHLNSMRRVEWLRKKLQ[Cha]V-NH2; N-terminus assumed) | – | – | 8 | – | IC50 (PTHR-delNt; [2]): 0.305 ± 0.126 µM
SVSEIQLMHNLGKHLNSMERVEWLRKKLADV-NH2 [Gln^29→Ala] | 9 | 1.93 | – | – | –
AVSEIQLMHNLGKHLNSMRRVEWLEKKLQDV-NH2 [Arg^25→Glu] | – | – | 5 | about four-fold | IC50 (PTHR-delNt; [2]): 1.63 µM
SVSEIQLMHNLGKHLNSMERVEWLRAKLQDV-NH2 [Lys^26→Ala] | 7 | 6.21 | – | – | –
Arg^20→Apa: hPTH(1-31)NH2 analog with Arg^20 replaced by (S)-2-amino-4[(2-amino)pyrimidinyl]methylalanine (Apa) (SVSEIQLMHNLGKHLNSME[Apa]VEWLRKKLQDV-NH2) | – | 5.74 | – | – | –
SVSEIQLMHNLGKHLNSMERVAWLRKKLQDV-NH2 [Glu^22→Ala] | 9 | 5.86 | – | – | –
SVSEIQLMHNLGKHLNSMEEVEWLRKKLQDV [Arg^20→Glu] | 7 | 14.7 | 8 | less than three-fold | reduction (alteration) of binding affinity for PTHR-delNt relative to parent peptide (PTHR-delNt; COS-7 membranes, listed as Arg^20 to Glu substitution in PTH(1-31)NH2): approximately four-fold reduction; IC50 (PTHR-delNt; [2]): 0.776 ± 0.38 µM
CC[C@H](C)[C@H](NC(=O)[C@H](CCC(=O)O)NC(=O)[C@H](CO)NC(=O)[C@@H](NC(=O)[C@@H](N)CO)C(C)C)C(=O)N[C@@H](CCC(N)=O)C(=O)N[C@@H](CC(C)C)C(=O)N[C@@H](CCSC)C(=O)N[C@@H](Cc1c[nH]cn1)C(=O)N[C@@H](CC(N)=O)C(=O)N[C@@H](CC(C)C)C(=O)NCC(=O)N[C@@H](CCCCN)C(=O)N[C@@H](Cc1c[nH]cn1)C(=O)N[C@@H](CC(C)C)C(=O)N[C@@H](CC(N)=O)C(=O)N[C@@H](CO)C(=O)N[C@@H](CCSC)C(=O)N[C@@H](CCC(=O)O)C(=O)N[C@@H](CCCN)C(=O)N[C@H](C(=O)N[C@@H](CCC(=O)O)C(=O)N[C@@H](Cc1c[nH]c2ccccc12)C(=O)N[C@@H](CC(C)C)C(=O)N[C@@H](CCCNC(=N)N)C(=O)N[C@@H](CCCCN)C(=O)N[C@@H](CCCCN)C(=O)N[C@@H](CC(C)C)C(=O)N[C@@H](CCC(N)=O)C(=O)N[C@@H](CC(=O)O)C(=O)N[C@H](C(N)=O)C(C)C)C(C)C [Arg^20→Orn] (H-SVSEIQLMHNLGKHLNSME[Orn]VEWLRKKLQDV-NH2; N-terminus assumed) | 6 | 5.53 | – | – | –
SVSEIQLMHNLGKHLNSMERVEWLRKKAQDV-NH2 [Leu^28→Ala] | 8 | 3.46 | – | – | –
SVSEIQLMHNLGKHLNSMERVEWLRKALQDV-NH2 [Lys^27→Ala] | 9 | 7.29 | – | – | –
AVSEIQLMHNLGKHLNSMRRVEWLREKLQDV-NH2 [Lys^26→Glu] | – | – | 6 | – | IC50 (PTHR-delNt; [2]): 0.832 ± 0.215 µM
SVSEIQLMHNLGKHLNSMEQVEWLRKKLQDV-NH2 [Arg^20→Gln] | 7 | 10.3 | – | – | –
SVSEIQLMHNLGKHLNSMRRVAWLRKKLQDV-NH2 [Glu^19,22→Arg,Ala] | 8 | 0.36 ± 0.019 | – | – | –
SVSEIQLMHNLGKHLNSMARVAWLRKKLQDV-NH2 [Glu^19,22→Ala,Ala] | 9 | 0.619 ± 0.075 | – | – | –
SVSEIQLMHNLGKHLNSMERVEWARKKLQDV-NH2 [Leu^24→Ala] | 7 | 8.76 | – | only two-fold | –
SVSEIQLMHNLGKHLNSMRRVEWLRKKLQDV-NH2 [Glu^19→Arg] | 8 | 1.23 | – | – | –
CC[C@H](C)[C@H](NC(=O)[C@H](CCC(=O)O)NC(=O)[C@H](CO)NC(=O)[C@@H](NC(=O)[C@@H](N)CO)C(C)C)C(=O)N[C@@H](CCC(N)=O)C(=O)N[C@@H](CC(C)C)C(=O)N[C@@H](CCSC)C(=O)N[C@@H](Cc1c[nH]cn1)C(=O)N[C@@H](CC(N)=O)C(=O)N[C@@H](CC(C)C)C(=O)NCC(=O)N[C@@H](CCCCN)C(=O)N[C@@H](Cc1c[nH]cn1)C(=O)N[C@@H](CC(C)C)C(=O)N[C@@H](CC(N)=O)C(=O)N[C@@H](CO)C(=O)N[C@@H](CCSC)C(=O)N[C@@H](CCC(=O)O)C(=O)N[C@@H](Cc1ccc(NC(=N)N)cc1)C(=O)N[C@H](C(=O)N[C@@H](CCC(=O)O)C(=O)N[C@@H](Cc1c[nH]c2ccccc12)C(=O)N[C@@H](CC(C)C)C(=O)N[C@@H](CCCNC(=N)N)C(=O)N[C@@H](CCCCN)C(=O)N[C@@H](CCCCN)C(=O)N[C@@H](CC(C)C)C(=O)N[C@@H](CCC(N)=O)C(=O)N[C@@H](CC(=O)O)C(=O)N[C@H](C(N)=O)C(C)C)C(C)C [Arg^20→Gph] (H-SVSEIQLMHNLGKHLNSME[Phe(4-guanidino)]VEWLRKKLQDV-NH2; N-terminus assumed) | – | 2.05 | – | – | –
